Where a name gives a salt, the structure may show the parent alone. Read-outs that look alike come from different tables or passages of the source.
Assays:
[1] = in vitro; conditions: African green monkey
[2] = system: SARS-COV-2; assay: microbe, parasite or virus in culture; assay type: cell-based; set-up: SI (Selectivity Index, CC50/IC50): unit not given here; conditions: for SI (Selectivity Index, CC50/IC50): SARS-COV-2, values >50 assumed to be 50; for IC50: read-out: SARS-COV-2 inhibition (IC50)
[3] = Severe acute respiratory syndrome coronavirus 2, Vero, 24 h
[4] = Severe acute respiratory syndrome coronavirus 2, Vero cells, 24 hours infection

SMILES	CC50 [1] [µM]	SI (Selectivity Index, CC50/IC50) [2]	IC50 [2, 3] [µM]	IC50 [2, 4] [µM]
CC[C@H](C)[C@H](N)C(=O)Oc1cc2c(cc1-c1c3c(cc4cc(OC)c(OC)cc14)COC3=O)OCO2 [Example 270, 6-(6,7-dimethoxy-3-oxo-1,3-dihydronaphtho[2,3-c]furan-4-yl)benzo[d][1,3]dioxol-5-yl L-isoleucinate]	> 50	122.64	0.41	
COc1cc2cc3c(c(-c4ccnc5c(OC)cccc45)c2cc1OC)C(=O)OC3 [Example 140, 6,7-dimethoxy-9-(8-methoxyquinolin-4-yl)naphtho[2,3-c]furan-1(3H)-one]	> 50	1.0		> 50
COc1cc2c(OC)c3c(c(-c4ccc(N5CCC6(CC5)OCCO6)nc4)c2cc1OC)COC3=O [Example 260, 4-(6-(1,4-dioxa-8-azaspiro[4.5]decan-8-yl)pyridin-3-yl)-6,7,9-trimethoxynaphtho[2,3-c]furan-1(3H)-one]	> 50	1.00		> 50
COCCN(C)c1c2c(cc3cc(OC)c(OC)cc13)COC2=O [Example 5, 6,7-dimethoxy-9-((2-methoxyethyl)(methyl)amino)naphtho[2,3-c]furan-1(3H)-one]	> 50	1.00		> 50
COc1cc2cc3c(c(-c4ccc5c(O)ccnc5c4C)c2cc1OC)C(=O)OC3 [Example 154, 9-(4-hydroxy-8-methylquinolin-7-yl)-6,7-dimethoxynaphtho[2,3-c]furan-1(3H)-one]	> 50	1.0		> 50
COc1cc2cc3c(c(-c4ccc5cc(C(F)(F)F)cc(O)c5c4)c2cc1OC)C(=O)OC3 [Example 153, 9-(8-hydroxy-6-(trifluoromethyl)naphthalen-2-yl)-6,7-dimethoxynaphtho[2,3-c]furan-1(3H)-one]	> 50	1.0		> 50
COC[C@@H]1CCCN1c1ncc(-c2c3c(cc4cc(OC)c(OC)cc24)COC3=O)cn1.Cl [Example 97, (S)-6,7-dimethoxy-9-(2-(2-(methoxymethyl)pyrrolidin-1-yl)pyrimidin-5-yl)naphtho[2,3-c]furan-1(3H)-one hydrochloride]	> 50	8.74	5.72	
COc1cc2cc3c(c(-c4cnc(N(C)CCN5CCOCC5)nc4)c2cc1OC)C(=O)OC3 [Example 111, 6,7-dimethoxy-9-(2-(methyl(2-morpholinoethyl)amino)pyrimidin-5-yl)naphtho[2,3-c]furan-1(3H)-one hydrochloride]	> 50	2.37	21.1	
COc1cc2cc3c(c(-c4ccc5c(N6CCNCC6)ccnc5c4)c2cc1OC)C(=O)OC3 [Example 152, 6,7-dimethoxy-9-(4-(piperazin-1-yl)quinolin-7-yl)naphtho[2,3-c]furan-1(3H)-one]	> 50	2.10		23.8
CCCCCCCCCCN(CCCCCCCCCC)c1ncc(-c2c3c(cc4cc(OC)c(OC)cc24)COC3=O)cn1.Cl [Example 87, 9-(2-(didecylamino)pyrimidin-5-yl)-6,7-dimethoxynaphtho[2,3-c]furan-1(3H)-one hydrochloride]	> 50	1.00	> 50	
CCCCN(C)c1ccc(-c2c3c(cc4cc(OC)c(OC)cc24)COC3=O)cn1 [Example 180, 9-(6-(butyl(methyl)amino)pyridin-3-yl)-6,7-dimethoxynaphtho[2,3-c]furan-1(3H)-one]	> 50	73.59		0.68
COc1cc2cc3c(c(-c4cnc(N(C)C)nc4)c2cc1OC)C(=O)OC3 [Example 11, 9-(2-(dimethylamino)pyrimidin-5-yl)-6,7-dimethoxynaphtho[2,3-c]furan-1(3H)-one]	> 50	309.03		0.16
COc1cc2cc3c(c(-c4cnc(NCC5CC5)nc4)c2cc1OC)C(=O)OC3 [Example 67, 9-(2-((cyclopropylmethyl)amino)pyrimidin-5-yl)-6,7-dimethoxynaphtho[2,3-c]furan-1(3H)-one]	> 50	2.72		18.4
COc1cc2cc3c(c(-c4ccc(N(C)C5CCCC5)nc4)c2cc1OC)C(=O)OC3 [Example 177, 9-(6-(cyclopentyl(methyl)amino)pyridin-3-yl)-6,7-dimethoxynaphtho[2,3-c]furan-1(3H)-one]	> 50	180.12		0.28
COc1cc2cc3c(c(-c4ccc(N(C)CC5CCCO5)nc4)c2cc1OC)C(=O)OC3 (stereo not drawn) [Example 192, 6,7-dimethoxy-9-(6-(methyl((tetrahydrofuran-2-yl)methyl)amino)pyridin-3-yl)naphtho[2,3-c]furan-1(3H)-one]	> 50	10.08		4.96
COc1cc2cc3c(c(-c4cccc(N5CCCCC5)c4)c2cc1OC)C(=O)OC3 [Example 243, 6,7-dimethoxy-9-(3-(piperidin-1-yl)phenyl)naphtho[2,3-c]furan-1(3H)-one]	> 50	3.26		15.3
CCN(C)c1ncc(-c2c3c(cc4cc(OC)c(OC)cc24)COC3=O)cn1 [Example 106, 9-(2-(ethyl(methyl)amino)pyrimidin-5-yl)-6,7-dimethoxynaphtho[2,3-c]furan-1(3H)-one hydrochloride]	> 50	297.58	0.17	
COc1cc2cc3c(c(-c4ccc(C(=O)C(F)(F)F)cc4)c2cc1OC)C(=O)OC3 [Example 210, 6,7-dimethoxy-9-(4-(2,2,2-trifluoroacetyl)phenyl)naphtho[2,3-c]furan-1(3H)-one]	> 50	4.91	10.2	
COc1cc2cc3c(c(-c4ccc(N5C[C@@H](C)O[C@@H](C)C5)nc4)c2cc1OC)C(=O)OC3 [Example 121, 9-(6-((2S,6R)-2,6-dimethylmorpholino)pyridin-3-yl)-6,7-dimethoxynaphtho[2,3-c]furan-1(3H)-one]	> 50	21.51		2.32
COc1cc2cc3c(c(-c4ccc5c(c4)N(C)CCC5)c2cc1OC)C(=O)OC3 [Example 170, 6,7-dimethoxy-9-(1-methyl-1,2,3,4-tetrahydroquinolin-7-yl)naphtho[2,3-c]furan-1(3H)-one]	> 50	24.25		2.06
COc1cc2cc3c(c(-c4ccc(N(C)Cc5cccs5)nc4)c2cc1OC)C(=O)OC3 [Example 198, 6,7-dimethoxy-9-(6-(methyl(thiophen-2-ylmethyl)amino)pyridin-3-yl)naphtho[2,3-c]furan-1(3H)-one]	> 50	48.47		1.03
COc1cc2cc3c(c(-c4ccc(N(C)c5nn(C)cc5C#N)nc4)c2cc1OC)C(=O)OC3.Cl [Example 241, 3-((5-(6,7-dimethoxy-3-oxo-1,3-dihydronaphtho[2,3-c]furan-4-yl)pyridin-2-yl)(methyl)amino)-1-methyl-1H-pyrazol-4-carbonitrile]	> 50	1.00	> 50	
COc1cc2cc3c(c(-c4cnc(N5C[C@H](C)O[C@@H](C)C5)nc4)c2cc1OC)C(=O)OC3 [Example 62, 9-(2-((2S,6S)-2,6-dimethylmorpholino)pyrimidin-5-yl)-6,7-dimethoxynaphtho[2,3-c]furan-1(3H)]	> 50	1.00		> 50
COc1cc2cc3c(c(-c4cc5c(cc4OC)OCO5)c2cc1OC)C(=O)OC3 [Example 88, 6,7-dimethoxy-9-(6-methoxybenzo[d][1,3]dioxol-5-yl)naphtho[2,3-c]furan-1(3H)-one]	> 50	3.00		16.6
COc1cc2cc3c(c(-c4ccc(N(C)CC5CC5)nc4)c2cc1OC)C(=O)OC3.Cl [Example 183, 9-(6-((cyclopropylmethyl)(methyl)amino)pyridin-3-yl)-6,7-dimethoxynaphtho[2,3-c]furan-1(3H)-one]	> 50	124.83	0.4	
COc1cc2cc3c(c(-c4ccc5nccc(N6CCNCC6)c5c4)c2cc1OC)C(=O)OC3 [Example 135, 6,7-dimethoxy-9-(4-(piperazin-1-yl)quinolin-6-yl)naphtho[2,3-c]furan-1(3H)-one]	> 50	2.90		17.2
COc1cc2cc3c(c(-c4cnc5ccc(N6CCOCC6)nn45)c2cc1OC)C(=O)OC3 [Example 220, 6,7-dimethoxy-9-(6-morpholinoimidazo[1,2-b]pyridazin-3-yl)naphtho[2,3-c]furan-1(3H)-one]	> 50	1.00		> 50
CCN(c1ccc(-c2c3c(cc4cc(OC)c(OC)cc24)COC3=O)cn1)C1Cc2ccccc2C1 [Example 195, 9-(6-((2,3-dihydro-1H-indan-2-yl)(ethyl)amino)pyridin-3-yl)-6,7-dimethoxynaphtho[2,3-c]furan-1(3H)-one]	> 50	9.50		5.27
COc1cc2cc3c(c(-c4ccc(N(C)c5nnc(C)s5)nc4)c2cc1OC)C(=O)OC3 [Example 214, 6,7-dimethoxy-9-(6-(methyl(5-methyl-1,3,4-thiadiazol-2-yl)amino)pyridin-3-yl)naphtho[2,3-c]furan-1(3H)-one]	> 50	1.00		> 50
COc1cc2cc3c(c(-c4cnc(N5CCc6sccc6C5)nc4)c2cc1OC)C(=O)OC3 [Example 12, 9-(2-(6,7-dihydrothieno[3,2-c]pyridin-5 (4H)-yl)pyrimidin-5-yl)-6,7-dimethoxynaphtho[2,3-c]furan-1(3H)-one]	> 50	60.38		0.83

— patent publication US20240368104A1, “Novel Dialkoxynaphtho[2,3-C]Furan-1(3H)-One Derivatives and Pharmaceutical Composition For Preventing or Treating Respiratory Disease or SARS-COV-2 Infection Disease, Comprising Same” (priority 2021, published 2024)
